Test results from patent publication US8232269B2, “Amide compounds useful in therapy” (Pfizer Inc., priority 2008, dated 2012).

Target: T1, Progesterone Receptor (PR) (Homo sapiens, UniProt P06401)
T1 construct: endogenous in cells; host or cells: T47D human breast mammary carcinoma cells
T1 sequence (P06401 1-933): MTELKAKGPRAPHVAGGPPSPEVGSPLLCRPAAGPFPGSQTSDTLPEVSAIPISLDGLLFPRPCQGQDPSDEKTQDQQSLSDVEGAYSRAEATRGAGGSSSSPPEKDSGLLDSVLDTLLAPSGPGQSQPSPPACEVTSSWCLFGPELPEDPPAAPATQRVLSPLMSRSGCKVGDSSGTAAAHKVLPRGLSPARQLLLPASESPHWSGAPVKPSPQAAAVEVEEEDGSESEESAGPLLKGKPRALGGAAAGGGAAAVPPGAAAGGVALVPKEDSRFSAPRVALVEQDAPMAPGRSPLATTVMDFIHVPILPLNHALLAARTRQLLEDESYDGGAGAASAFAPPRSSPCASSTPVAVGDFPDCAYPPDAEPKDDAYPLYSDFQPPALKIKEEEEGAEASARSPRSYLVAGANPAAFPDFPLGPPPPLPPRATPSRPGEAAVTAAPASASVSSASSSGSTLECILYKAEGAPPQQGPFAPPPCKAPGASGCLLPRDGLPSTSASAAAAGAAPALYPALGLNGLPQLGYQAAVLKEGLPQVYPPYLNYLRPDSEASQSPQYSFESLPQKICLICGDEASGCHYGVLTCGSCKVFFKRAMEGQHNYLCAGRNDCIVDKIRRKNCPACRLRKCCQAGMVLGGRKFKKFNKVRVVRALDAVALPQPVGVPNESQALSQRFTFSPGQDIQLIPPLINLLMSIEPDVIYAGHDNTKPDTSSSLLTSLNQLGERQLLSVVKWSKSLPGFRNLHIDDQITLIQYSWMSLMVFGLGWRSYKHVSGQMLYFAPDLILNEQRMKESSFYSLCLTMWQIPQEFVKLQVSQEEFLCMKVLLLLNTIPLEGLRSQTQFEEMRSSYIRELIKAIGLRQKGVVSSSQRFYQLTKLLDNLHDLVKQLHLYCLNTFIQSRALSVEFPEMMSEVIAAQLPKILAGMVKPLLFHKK
Assay: In vitro functional assay for progesterone receptor (PR) antagonists: inhibition of progesterone-induced alkaline phosphatase expression in T47D cells
Assay type: cell-based
Details: antagonist format, 5 nM progesterone, Ki calculated from IC50 with the Cheng-Prusoff equation
Method in brief: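 Antagonist format: T47D cells (8750/well, phenol red-free DMEM + 5% CS-FCS) given half-log compound dilutions plus 5 nM progesterone (final), incubated overnight (≥16 h) at 37 °C. Alkaline phosphatase read by CSPD chemiluminescence after freeze-thaw lysis; 0.1 μM RU-486 final defines minimum.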

SMILES	Ki [nM]
CC(C)NC(=O)c1c(C2CC2)c(-c2ccc(C#N)cc2)nn1C(C)C [Example 4, 3-(4-Cyano-phenyl)-4-cyclopropyl-N,1-diisopropyl-1H-pyrazole-5-carboxamide]	7.06
COC(=O)C(C)(C)NC(=O)c1c(C2CC2)c(-c2ccc(C#N)cc2)nn1C(C)C [Example 27]	161
CC(C)n1nc(-c2ccc(C#N)cc2)c(C2CC2)c1C(=O)N[C@@H]1CCN(C(=O)OC(C)(C)C)C1 [Example 5, tert-Butyl (3R)-3-({[3-(4-cyanophenyl)-4-cyclopropyl-1-isopropyl-1H-pyrazol-5-yl]carbonyl}amino)-pyrrolidine-1-carboxylate]	7.92
CC(C)n1nc(-c2ccc(C#N)cc2)c(C2CC2)c1C(=O)NCC1CC1 [Example 49, 3-(4-Cyanophenyl)-4-cyclopropyl-N-(cyclopropylmethyl)-1-isopropyl-1H-pyrazole-5-carboxamide]	4.94
CC(C)n1nc(-c2ccc(C#N)cc2)c(C2CC2)c1C(=O)NC1CC1 [Example 58, 3-(4-Cyanophenyl)-N,4-dicyclopropyl-1-isopropyl-1H-pyrazole-5-carboxamide]	6.87
CCC(=O)N1CC[C@H](NC(=O)c2c(C3CC3)c(-c3ccc(C#N)cc3)nn2C(C)C)C1 [Example 15, 3-(4-Cyanophenyl)-4-cyclopropyl-1-isopropyl-N-[(3S)-1-propionylpyrrolidin-3-yl]-1H-pyrazole-5-carboxamide]	280
COCCCNC(=O)c1c(C2CC2)c(-c2ccc(C#N)cc2)nn1C(C)C [Example 21, 3-(4-Cyanophenyl)-4-cyclopropyl-1-isopropyl-N-(3-methoxypropyl)-1H-pyrazole-5-carboxamide]	8.27
CC(C)n1nc(-c2ccc(C#N)cc2)c(C2CC2)c1C(=O)NC1CCS(=O)(=O)C1 (racemic) [Example 57, (+/−)-3-(4-Cyanophenyl)-4-cyclopropyl-N-(1,1-dioxidotetrahydro-3-thienyl)-1-isopropyl-1H-pyrazole-5-carboxamide]	7.43

Results, then the molecule that gave them:

Ki [nM]	SMILES
17.8	CCc1c(-c2ccc(C#N)cc2)nn(C(C)CC)c1C(=O)NC1CC1 (racemic) [Example 104, (+/−)-1-sec-Butyl-3-(4-cyanophenyl)-N-cyclopropyl-4-ethyl-1H-pyrazole-5-carboxamide]
21.9	CC(C)n1nc(-c2ccc(C#N)cc2)c(C#N)c1C(=O)NCC(C)(C)O [Example 134]
70.2	Cc1c(-c2ccc(C#N)cc2)nn(C2CC2)c1C(=O)NCC1CC1 [Example 82, 3-(4-Cyanophenyl)-1-cyclopropyl-N-(cyclopropylmethyl)-4-methyl-1H-pyrazole-5-carboxamide]
7.67	CCc1c(-c2ccc(C#N)cc2)nn(C(C)CC)c1C(=O)NCC1CC1 (racemic) [Example 101, (+/−)-1-sec-Butyl-3-(4-cyanophenyl)-N-(cyclopropylmethyl)-4-ethyl-1H-pyrazole-5-carboxamide]
29.1	Cc1c(-c2ccc(C#N)cc2)nn(C2CCC2)c1C(=O)NC[C@@H](C)O [Example 73, 3-(4-Cyanophenyl)-1-cyclobutyl-N-[(2R)-2-hydroxypropyl]-4-methyl-1H-pyrazole-5-carboxamide]
10.6	CC(C)n1nc(-c2ccc(C#N)cc2)c(C#N)c1C(=O)NC1CC1 [Example 94, 4-Cyano-3-(4-cyanophenyl)-N-cyclopropyl-1-isopropyl-1H-pyrazole-5-carboxamide]
374	CC(C)n1nc(-c2ccc(C#N)cc2)c(Cc2ccccc2)c1C(=O)NC1CC1 [Example 96, 4-Benzyl-3-(4-cyanophenyl)-N-cyclopropyl-1-isopropyl-1H-pyrazole-5-carboxamide]
85	CCc1c(-c2ccc(C#N)cc2)nn(C(C)C)c1C(=O)NC[C@@H](C)O [Example 115, 3-(4-Cyanophenyl)-4-ethyl-N-[(2R)-2-hydroxypropyl]-1-isopropyl-1H-pyrazole-5-carboxamide]
5.18	CNC(=O)c1c(C#N)c(-c2ccc(C#N)c(C)c2)nn1C(C)C [Example 122]
